From patent US20240376099A1, “COMPOUNDS AND COMPOSITIONS AS INHIBITORS OF ENDOSOMAL TOLL-LIKE RECEPTORS” (Novartis AG, priority 2016, published 2024)

target: T1, TLR8 (Homo sapiens, UniProt Q9NR97); assay: huPBMC TLR8 Antagonist IL-6 TR-FRET Assay; assay type: cell-based; set-up: Fresh blood was collected from normal human donors; endogenous in cells; host or cells: human PBMCs from fresh donor blood; settings: human PBMCs stimulated with ssRNA40 1 μg/ml (DOTAP), 14-16 hrs; IL-6 TR-FRET read-out
T1 sequence (Q9NR97 27-1041): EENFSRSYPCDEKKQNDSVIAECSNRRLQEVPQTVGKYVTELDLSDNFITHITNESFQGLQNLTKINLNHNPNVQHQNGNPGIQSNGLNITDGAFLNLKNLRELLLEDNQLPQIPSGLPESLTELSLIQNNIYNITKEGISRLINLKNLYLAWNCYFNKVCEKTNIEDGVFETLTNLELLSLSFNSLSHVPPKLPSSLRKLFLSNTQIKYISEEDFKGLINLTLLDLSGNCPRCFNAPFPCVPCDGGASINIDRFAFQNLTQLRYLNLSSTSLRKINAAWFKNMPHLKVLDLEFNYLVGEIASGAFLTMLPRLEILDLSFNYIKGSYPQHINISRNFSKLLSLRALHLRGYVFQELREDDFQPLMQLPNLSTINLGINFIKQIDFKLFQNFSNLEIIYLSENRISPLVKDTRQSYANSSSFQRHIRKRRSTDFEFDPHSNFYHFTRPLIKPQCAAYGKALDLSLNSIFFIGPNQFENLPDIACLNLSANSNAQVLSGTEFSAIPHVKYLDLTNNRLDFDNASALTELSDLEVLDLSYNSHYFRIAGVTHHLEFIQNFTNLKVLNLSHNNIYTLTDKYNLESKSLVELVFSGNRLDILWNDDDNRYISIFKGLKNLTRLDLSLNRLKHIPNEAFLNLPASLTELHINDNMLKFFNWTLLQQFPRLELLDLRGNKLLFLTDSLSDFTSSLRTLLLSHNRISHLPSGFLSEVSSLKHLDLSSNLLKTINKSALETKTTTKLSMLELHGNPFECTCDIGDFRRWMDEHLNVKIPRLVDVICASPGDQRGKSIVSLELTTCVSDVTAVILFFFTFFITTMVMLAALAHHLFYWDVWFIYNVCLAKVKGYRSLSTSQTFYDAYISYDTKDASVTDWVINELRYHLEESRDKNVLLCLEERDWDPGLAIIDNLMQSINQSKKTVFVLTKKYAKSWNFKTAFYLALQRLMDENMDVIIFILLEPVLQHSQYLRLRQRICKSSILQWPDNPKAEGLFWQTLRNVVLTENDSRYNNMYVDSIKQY
Procedure, shortened: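 Human PBMCs from fresh donor blood (150,000 cells/well) stimulated 14–16 h at 37 °C with DOTAP-complexed ssRNA40 (final 1 μg/ml for TLR8, 10 μg/mL for TLR7) or ODN2216 (final 0.3 μM, TLR9), 0.25% DMSO, ten-point 1/3 compound dilutions. Supernatant IL-6 read by HTRF (TLR8); IFNα by IFNα2b AlphaLISA (TLR7/TLR9).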

Row | SMILES | IC50 [nM]
1 | Cc1cc(N2CCc3c(c(C)nn3CC34CCC(N(C)C)(CC3)CC4)C2)c2cnn(C)c2n1 [Compound No. 43, 4-((5-(1,6-dimethyl-1H-pyrazolo[3,4-b]pyridin-4-yl)-3-methyl-4,5,6,7-tetrahydro-1H-pyrazolo[4,3-c]pyridin-1-yl)methyl)-N,N-dimethylbicyclo[2.2.2]octan-1-amine] | 51
2 | Cc1nc(N2CCc3c(c(C)nn3CC34CCC(N5CCCCC5)(CC3)CC4)C2)c2c(n1)c(C)nn2C [compound 38, 1,3,5-trimethyl-7-(3-methyl-1-((4-(piperidin-1-yl)bicyclo[2.2.2]octan-1-yl)methyl)-6,7-dihydro-1H-pyrazolo[4,3-c]pyridin-5(4H)-yl)-1H-pyrazolo[4,3-d]pyrimidine] | 31
3 | Cc1cc(N2CCc3c(c(C)nn3CC34CCC(NC5COC5)(CC3)CC4)C2)c2cnn(C)c2n1 [Compound No. 6, N-(4-((5-(1,6-dimethyl-1H-pyrazolo[3,4-b]pyridin-4-yl)-3-methyl-4,5,6,7-tetrahydro-1H-pyrazolo[4,3-c]pyridin-1-yl)methyl)bicyclo[2.2.2]octan-1-yl)oxetan-3-amine] | 135
4 | COCCNC12CCC(Cn3nc(C)c4c3CCN(c3ccnc(-c5ccccc5)c3)C4)(CC1)CC2 [compound 130, N-(2-methoxyethyl)-4-((3-methyl-5-(2-phenylpyridin-4-yl)-4,5,6,7-tetrahydro-1H-pyrazolo[4,3-c]pyridin-1-yl)methyl)bicyclo[2.2.2]octan-1-amine] | 2830
5 | Cc1cc(N2CCc3c(c(C)nn3CC34CCC(NCC(C)(C)O)(CC3)CC4)C2)c2cnn(C)c2n1 [compound 123, 1-((4-((5-(1,6-dimethyl-1H-pyrazolo[3,4-b]pyridin-4-yl)-3-methyl-4,5,6,7-tetrahydro-1H-pyrazolo[4,3-c]pyridin-1-yl)methyl)bicyclo[2.2.2]octan-1-yl)amino)-2-methylpropan-2-ol] | 121
6 | Cc1cc(N2CCc3c(c(C)nn3CC34CCC(N5CCO[C@H](C)C5)(CC3)CC4)C2)c2cnn(C)c2n1 [compound 107, (R)-4-(4-((5-(1,6-dimethyl-1H-pyrazolo[3,4-b]pyridin-4-yl)-3-methyl-4,5,6,7-tetrahydro-1H-pyrazolo[4,3-c]pyridin-1-yl)methyl)bicyclo[2.2.2]octan-1-yl)-2-methylmorpholine] | 6
7 | Cc1nc(N2CCc3c(c(C)nn3CC34CCC(N5CC6(COC6)C5)(CC3)CC4)C2)c2c(n1)c(C)nn2C [Compound No. 10, 6-(4-((3-methyl-5-(1,3,5-trimethyl-1H-pyrazolo[4,3-d]pyrimidin-7-yl)-4,5,6,7-tetrahydro-1H-pyrazolo[4,3-c]pyridin-1-yl)methyl)bicyclo[2.2.2]octan-1-yl)-2-oxa-6-azaspiro[3.3]heptane] | 48
8 | CCNCC(=O)NC12CCC(Cn3nc(C)c4c3CCN(c3cc(C)nc5c3cnn5C)C4)(CC1)CC2 [compound 114, N-(4-((5-(1,6-dimethyl-1H-pyrazolo[3,4-b]pyridin-4-yl)-3-methyl-4,5,6,7-tetrahydro-1H-pyrazolo[4,3-c]pyridin-1-yl)methyl)bicyclo[2.2.2]octan-1-yl)-2-(ethylamino)acetamide] | 15
9 | [2H]C([2H])([2H])N(CC(=O)NC12CCC(Cn3nc(C)c4c3CCN(c3cc(C)nc5c3cnn5C)C4)(CC1)CC2)C([2H])([2H])[2H] [compound 134, 2-(bis(trideuteromethyl)amino)-N-(4-((5-(1,6-dimethyl-1H-pyrazolo[3,4-b]pyridin-4-yl)-3-methyl-4,5,6,7-tetrahydro-1H-pyrazolo[4,3-c]pyridin-1-yl)methyl)bicyclo[2.2.2]octan-1-yl)acetamide] | 93
10 | Cc1nc(N2CCc3c(c(C)nn3CC34CCC(NC(=O)CCN(C)C)(CC3)CC4)C2)c2c(n1)c(C)nn2C [compound 24, 3-(dimethyalmino)-N-(4-((3-methyl-5-(1,3,5-trimethyl-1H-pyrazolo[4,3-d]pyrimidin-7-yl)-4,5,6,7-tetrahydro-1H-pyrazolo[4,3-c]pyridin-1-yl)methyl)bicyclo[2.2.2]octan-1-yl)propanamide] | 10
11 | Cc1nc(N2CCc3c(c(C)nn3CC34CCC(N(C5CCC5)C5CCC5)(CC3)CC4)C2)c2c(n1)c(C)nn2C [compound 28, N,N-dicyclobutyl-4-((3-methyl-5-(1,3,5-trimethyl-1H-pyrazolo[4,3-d]pyrimidin-7-yl)-4,5,6,7-tetrahydro-1H-pyrazolo[4,3-c]pyridin-1-yl)methyl)bicyclo[2.2.2]octan-1-amine] | 641
12 | Cc1nc(N2CCc3c(c(C)nn3CC34CCC(NCC5COC5)(CC3)CC4)C2)c2c(n1)c(C)nn2C [compound 23, 4-((3-methyl-5-(1,3,5-trimethyl-1H-pyrazolo[4,3-c]pyrimidin-7-yl)-4,5,6,7-tetrahydro-1H-pyrazolo[4,3-c]pyridin-1-yl)methyl)-N-(oxetan-3-ylmethyl)bicyclo[2.2.2]octan-1-amine] | 373
13 | Cc1nn(CC23CCC(N)(CC2)CC3)c2c1CN(c1nc(Cl)nc3cnn(C)c13)CC2 [compound 15, 4-((5-(5-chloro-1-methyl-1H-pyrazolo[4,3-d]pyrimidin-7-yl)-3-mehtyl-4,5,6,7-tetrahydro-1H-pyrazolo[4,3-c]pyridin-1-yl)methyl)bicyclo[2.2.2]octan-1-amine] | 203
14 | Cc1cc(N2CCc3c(c(C)nn3CC34CCC(N5CCOC[C@H]5C)(CC3)CC4)C2)c2cnn(C)c2n1 [compound 129, (R)-4-(4-((5-(1,6-dimethyl-1H-pyrazolo[3,4-b]pyridin-4-yl)-3-methyl-4,5,6,7-tetrahydro-1H-pyrazolo[4,3-c]pyridin-1-yl)methyl)bicyclo[2.2.2]octan-1-yl)-3-methylmorpholine] | 12
15 | Cc1nc(N2CCc3c(c(C)nn3CC34CCC(N5CCCCC5)(CC3)CC4)C2)c2cn[nH]c2n1 [compound 29, 6-methyl-4-(3-methyl-1-((4-(piperidin-1-yl)bicyclo[2.2.2]octan-1-yl)methyl)-6,7-dihydro-1H-pyrazolo[4,3-c]pyridin-5(4H)-yl)-1H-pyrazolo[3,4-d]pyrimidine] | 16
16 | Cc1cc(N2CCc3c(c(C)nn3CC34CCC(NC(=O)CN5CC(F)C5)(CC3)CC4)C2)c2cnn(C)c2n1 [Compound No. 133, N-(4-((5-(1,6-dimethyl-1H-pyrazolo[3,4-b]pyridin-4-yl)-3-methyl-4,5,6,7-tetrahydro-1H-pyrazolo[4,3-c]pyridin-1-yl)methyl)bicyclo[2.2.2]octan-1-yl)-2-(3-fluoroazetidin-1-yl)acetamide] | 806
17 | Cc1nc(N2CCc3c(c(C)nn3CC34CCC(N5CCOCC5)(CC3)CC4)C2)c2c(n1)c(C)nn2C [compound 25, 4-(4-((3-methyl-5-(1,3,5-trimethyl-1H-pyrazolo[4,3-d]pyrimidin-7-yl)-4,5,6,7-tetrahydro-1H-pyrazolo[4,3-c]pyridin-1-yl)methyl)bicyclo[2.2.2]octan-1-yl)morpholine] | 17
18 | Cc1cc(N2CCc3c(c(C)nn3CC34CCC(NCC(=O)N5CCCC5)(CC3)CC4)C2)c2cnn(C)c2n1 [compound 106, 2-((4-((5-(1,6-dimethyl-1H-pyrazolo[3,4-b]pyridin-4-yl)-3-methyl-4,5,6,7-tetrahydro-1H-pyrazolo[4,3-c]pyridin-1-yl)methyl)bicyclo[2.2.2]octan-1-yl)amino)-1-(pyrrolidin-1-yl)ethanone] | 168
19 | Cc1nc(N2CCc3c(c(C)nn3CC34CCC(NCC5(CO)COC5)(CC3)CC4)C2)c2c(n1)c(C)nn2C [compound 31, (3-(((4-((3-methyl-5-(1,3,5-trimethyl-1H-pyrazolo[4,3-d]pyrimidin-7-yl)-4,5,6,7-tetrahydro-1H-pyrazolo[4,3-c]pyridin-1-yl)methyl)bicyclo[2.2.2]octan-1-yl)amino)methyl)oxetan-3-yl)methanol] | 27
20 | Cc1cc(N2CCc3c(c(C)nn3CC34CCC(N5C[C@H](C)O[C@@H](C)C5)(CC3)CC4)C2)c2cnn(C)c2n1 [compound 111, (2S,6S)-4-(4-((5-(1,6-dimethyl-1H-pyrazolo[3,4-b]pyridin-4-yl)-3-methyl-4,5,6,7-tetrahydro-1H-pyrazolo[4,3-c]pyridin-1-yl)methyl)bicyclo[2.2.2]octan-1-yl)-2,6-dimethylmorpholine] | 39
